Test results reported in publication PMC12180986, “Molecular basis for differential PIP2-mediated association between vinculin and its splice isoform metavinculin” (The Journal of Biological Chemistry, 2025).
Substitutions are numbered along the chain they refer to.

Tests used:
Format in all cases: binding
[1] = molecular target: T1, MVt (metavinculin tail domain) (Homo sapiens, UniProt P18206); assay: high-speed lipid cosedimentation with LUVs, protein titration; settings: protein titrated at fixed 10% PIP2 in PE/PC/PS/PIP2 LUVs; Kd in protein concentration; 40 mM Hepes, 150 mM NaCl, pH 7.4, room temperature; read-out: Protein concentration (μM) / app Kd
T1 construct: gene VCL; tail domain residues 879-1134; N-terminal His-tag removed by TEV; 2HR-T vector; E. coli BL21(DE3)
T1 sequence (P18206 879-1134): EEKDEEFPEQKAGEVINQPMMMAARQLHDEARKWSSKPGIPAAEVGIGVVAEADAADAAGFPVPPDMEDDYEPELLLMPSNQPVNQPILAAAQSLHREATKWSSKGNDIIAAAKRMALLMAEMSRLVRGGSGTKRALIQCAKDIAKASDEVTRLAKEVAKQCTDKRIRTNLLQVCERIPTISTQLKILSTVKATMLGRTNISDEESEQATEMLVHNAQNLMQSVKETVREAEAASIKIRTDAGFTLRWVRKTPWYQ
From the text: high-speed lipid cosedimentation with LUVs, protein titration on MVt (metavinculin tail domain)

[2] = molecular target: T2, Vt (vinculin tail domain) (Gallus gallus, UniProt P12003); assay: as above; settings: protein titrated at fixed 10% PIP2 in PE/PC/PS/PIP2 LUVs; Kd in protein concentration; 40 mM Hepes, 150 mM NaCl, pH 7.4, room temperature; read-out: Protein concentration (μM) / app Kd
T2 construct: gene VCL; tail domain residues 879-1066; N-terminal His-tag removed by TEV; pQlinkH; E. coli BL21(DE3)
T2 sequence (P12003 879-1066 isoform P12003-1): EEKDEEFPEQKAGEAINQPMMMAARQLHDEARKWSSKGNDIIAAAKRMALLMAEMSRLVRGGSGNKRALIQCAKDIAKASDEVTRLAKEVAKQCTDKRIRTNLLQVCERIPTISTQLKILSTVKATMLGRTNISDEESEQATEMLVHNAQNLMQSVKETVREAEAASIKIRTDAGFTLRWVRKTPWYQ
From the text: high-speed lipid cosedimentation with LUVs, protein titration on Vt (vinculin tail domain)

[3] = molecular target: T3, MVt (metavinculin tail domain) (Homo sapiens, UniProt P18206, A934V); assay: high-speed lipid cosedimentation with LUVs, PIP2 gradient; settings: 10 μM protein, PE/PC/PS LUVs with 0-30 mol% PIP2; one-site fit; pH 7.4, room temperature; the table also has a μM column, which looks inconsistent with the lipid amount
T3 construct: gene VCL; tail domain residues 879-1134; N-terminal His-tag removed by TEV; 2HR-T vector; E. coli BL21(DE3)
T3 sequence (P18206 879-1134 A934V): T1 sequence (P18206 879-1134) with A56V
From the text: (§1) high-speed lipid cosedimentation with LUVs, PIP2 gradient on MVt (metavinculin tail domain)

[4] = molecular target: T1, MVt (metavinculin tail domain); assay: as above; settings: 10 μM protein, PE/PC/PS LUVs with 0-30 mol% PIP2; one-site fit; pH 7.4, room temperature; the table also has a μM column, which looks inconsistent with the lipid amount
From the text: as §1

[5] = molecular target: T2, Vt (vinculin tail domain); assay: as above; settings: 10 μM protein, PE/PC/PS LUVs with 0-30 mol% PIP2; one-site fit; pH 7.4, room temperature; the table also has a μM column, which looks inconsistent with the lipid amount
From the text: high-speed lipid cosedimentation with LUVs, PIP2 gradient on Vt (vinculin tail domain)

Kd [1]: 4.66 ± 1.62 µM
Kd [2]: 4.94 ± 1.56 µM
PIP2 (%) / app Kd [3]: 9.94 ± 2.52 % PIP2 (mol%) in liposomes
PIP2 (%) / app Kd [4]: 9.20 ± 1.80 % PIP2 (mol%) in liposomes
PIP2 (%) / app Kd [5]: 8.89 ± 1.25 % PIP2 (mol%) in liposomes
Substance: L-α-phosphatidylinositol-4,5-bisphosphate [PIP2]
